Results reported in patent US20170252278A1, “INHIBITION OF MATURATION OF DENTAL BIOFILM AND CARIOGENIC PROPERTIES” (KONINKLIJKE PHILIPS N.V., priority 2014, published 2017).

Columns and labels:
Format in all cases: cell-based
[1] = tested on: in vitro oral plaque biofilms; experiment: Microbial composition of biofilms by 16S rDNA sequencing; conditions: for shift in composition (Streptococcus down, Veillonella and Actinobacillus up) versus control: 10 μM; for Actinobacillus, share of biofilm composition / Actinomyces, share of biofilm composition / Campylobacter, share of biofilm composition / Fusobacterium, share of biofilm composition / Granulicatella, share of biofilm composition / Haemophilus, share of biofilm composition / Megasphaera, share of biofilm composition / Neisseria, share of biofilm composition / Other taxa, share of biofilm composition / Porphyromonas, share of biofilm composition / Prevotella, share of biofilm composition / Rothia, share of biofilm composition / Solobacterium, share of biofilm composition / Streptococcus, share of biofilm composition / Unclass. Pasteurellaceae, share of biofilm composition / Veillonella, share of biofilm composition: 3-Oxo-N 100 μM, furanones 10 μM
Experimental: DNA was isolated using phenol bead-beating followed by Agowa isolation, following the manufacturers instructions (LGC Genomics, Mag mini kit). Briefly, cells were mechanically disrupted four times at 1200 rpm for two minutes in addition of Tris-saturated Phenol, pH8, 0.1 mm zirconium beads and Mag lysis buffer. The DNA-containing phase was mixed with binding buffer and magnetic beads. DNA concentration was estimated by determining the absorbance at 260 nm using the nanodrop (Isogen, ND-1000).
PCR was performed in a final volume of 25 μl containing 1 μl of each primer ([…]), 1 μl dNTP (10 mM), 2.5 μl 10× DreamTaq Buffer including MgCl2 (Thermo Scientific), 0.2 μl DreamTaq DNA Polymerase (5 u/μ1, Thermo Scientific) and 50 ng of DNA. Initial denaturation was performed at 94° C. for 4 min, followed by 35 cycles of denaturation at 94° C. for 30 s, 54° C. annealing for 1 min, 72° C. for 1 min primer extension and a final extension at 72° C. for 5 min. Product formation was confirmed by electrophoresis of 5 μl on a 1% (w/v) agarose gel (Sphearo Q, Leiden, The Netherlands) stained with ethidium bromide.
These samples were analyzed by 16S rDNA Illumina sequencing at TNO Zeist (Netherlands).
Table 3. Microbial composition of biofilms grown for 48 (Table 3A) or 96 h (Table 3B) in the presence of different QS inhibitors. Composition was determined by 16S rDNA sequencing. The composition of the original inoculum used for all biofilms was also determined. “Unclass.” means: unclassified.

[2] = tested on: in vitro oral plaque biofilms; experiment: Lactic acid production assay of in vitro oral plaque biofilms; conditions: for reduction of lactate production / lactic acid production after 96 h of growth: 10 μM; for total lactic acid production per biofilm (FIG. 2): 100 μM, biofilms grown 48 h, 3 h in BPW with 0.2% sucrose
Experimental: All compounds tested of Table 1 were obtained from Sigma Aldrich. All compounds of Table 2, except 3-oxo-N(2oxocyclohexyl)dodecanamide, were kindly provided by M. Meijler, University of the Negev, Israel. The compounds were dissolved in DMSO and stored at −20 C. The compounds were continuously present at the indicated concentrations during biofilm growth, but not during further phenotypic analysis, i.e. lactate production.
To estimate the cariogenic phenotype, lactic acid production of the in vitro oral plaque biofilms was determined prior to harvesting (Exerkate et al 2010). In short, the biofilms on coverslips were placed in a 24-well plate containing 1.5 ml of BPW with 0.2% sucrose. Lactic acid formation was allowed for 3 hr at 37° C. under anaerobic conditions. The total amount of lactic acid produced in this period was analyzed using a colorimetric assay described previously (van Loveren et al. (2000)) and expressed as mM lactic acid, and as μM lactic acid per 1×10^6 CFU.
Biofilms were grown for 48 h in buffered McBain medium supplemented with 0.2% sucrose in the presence of 100 μM of one of the compounds. Medium was refreshed twice every day. […]

[3] = tested on: in vitro oral plaque biofilms; experiment: In vitro oral plaque biofilm formation in the Amsterdam Active Attachment Model, CFU determination; conditions: for effect on in vitro oral plaque biofilm formation: 10 μM, difference less than one log, not considered biologically relevant
Experimental: Stimulated saliva, used as inoculum, was collected on ice from ten donors. Saliva was donated 24 h after last brushing. The saliva was diluted 2-fold with 60% sterile glycerol, aliquoted and stored at −80° C. Before use, a pooled sample was prepared by mixing 200 μl of thawed saliva of each donor and vortexing for 30 seconds. In vitro oral plaque biofilms were inoculated 1:50 with pooled saliva.
In vitro oral plaque biofilms were grown in the Amsterdam Active Attachment Model (AAA-model, Exterkate et al. (2010)), assembled with glass coverslips (diameter 12 mm; Menzel, Braunschweig, Germany). The model was inoculated for 8 h with pooled saliva in buffered semi-defined McBain medium (2.5 g/l mucin (Sigma, St Louis, Mo.), 2.0 g/l Bacto peptone (Difco, Detroit, Mich.), 2.0 g/l Trypticase peptone (BBL, Cockeysville, Md.), 1.0 g/l yeast extract (BD Diagnostic Systems, Sparks, Md.), 0.35 g/l NaCl, 0.2 g/l KCl, 0.2 g/l CaCl2, 1 mg/l hemin (Sigma, St. Louis, Mo., USA), and 2 mg/l vitamin K1 (McBain et al. (2005)), with 50 mmol/1 PIPES at pH 7.0), with 0.2% sucrose.
In vitro oral plaque biofilms were grown in the AAA-model for 48-96 h in the presence of the compounds tested. The model was inoculated with saliva and incubated anaerobically at 37° C. for 8 hours to allow microbes to attach to the glass coverslips. After 8 hours of attachment, the inoculation medium was refreshed and in vitro oral plaque biofilms were grown for 16 hours. This refreshment routine was repeated daily until the day of harvesting.
In vitro oral plaque biofilms were harvested by transferring the glass coverslips into 2 ml phosphate buffered saline (PBS). The biofilms were dispersed using a Vibracell VCX130 sonicator with a maximum of 130 Watts and 20 kHz (Sonics & Materials, Newtown, USA). Bio films were sonicated on ice for 1 minute with a pulse rate of 50% and pulses of 1 second. Vibration amplitude was set to 40%.
To estimate the amount of in vitro oral plaque biofilm formation, total anaerobic colony forming units were determined. Briefly, serial dilutions of the dispersed bio films were made and plated on tryptic soy agar blood plates. Plates were subsequently incubated anaerobically for 96 h at 37° C. and colony forming units were determined by counting the number of colonies for each dilution.

Row | SMILES | shift in composition (Streptococcus down, Veillonella and Actinobacillus up) versus control ([1]; 48 h) | Actinobacillus, share of biofilm composition ([1]; 48 h) | Actinomyces, share of biofilm composition ([1]; 48 h) | Campylobacter, share of biofilm composition ([1]; 48 h) | Fusobacterium, share of biofilm composition ([1]; 48 h) | Granulicatella, share of biofilm composition ([1]; 48 h) | Haemophilus, share of biofilm composition ([1]; 48 h) | Megasphaera, share of biofilm composition ([1]; 48 h) | Neisseria, share of biofilm composition ([1]; 48 h) | Other taxa, share of biofilm composition ([1]; 48 h) | Porphyromonas, share of biofilm composition ([1]; 48 h) | Prevotella, share of biofilm composition ([1]; 48 h) | Rothia, share of biofilm composition ([1]; 48 h) | Solobacterium, share of biofilm composition ([1]; 48 h) | Streptococcus, share of biofilm composition ([1]; 48 h) | Unclass. Pasteurellaceae, share of biofilm composition ([1]; 48 h) | Veillonella, share of biofilm composition ([1]; 48 h) | Actinobacillus, share of biofilm composition ([1]; 96 h) | Actinomyces, share of biofilm composition ([1]; 96 h) | Campylobacter, share of biofilm composition ([1]; 96 h) | also measured
1 | O=C1C=C(Br)/C(=C/Br)O1 [Furanone C30, (Z-)-4-Bromo-5-(bromomethylene)-2(5H)-furanone] | absent or even inversed | 4.9% | 0.1% | 0.0% | 0.0% | 0.0% | 0.0% | 0.0% | 0.0% | 0.0% | 0.0% | 0.0% | 0.0% | 0.1% | 66.2% | 0.0% | 28.6% | 4.5% | 0.3% | 0.0% | Fusobacterium, share of biofilm composition ([1]; 96 h): 0.0%; Granulicatella, share of biofilm composition ([1]; 96 h): 0.3%; Haemophilus, share of biofilm composition ([1]; 96 h): 0.0%; Megasphaera, share of biofilm composition ([1]; 96 h): 0.0%; Neisseria, share of biofilm composition ([1]; 96 h): 0.0%; Other taxa, share of biofilm composition ([1]; 96 h): 0.1%; Porphyromonas, share of biofilm composition ([1]; 96 h): 0.0%; Prevotella, share of biofilm composition ([1]; 96 h): 0.0%; Rothia, share of biofilm composition ([1]; 96 h): 0.0%; Solobacterium, share of biofilm composition ([1]; 96 h): 0.8%; Streptococcus, share of biofilm composition ([1]; 96 h): 34.4%; Unclass. Pasteurellaceae, share of biofilm composition ([1]; 96 h): 0.0%; Veillonella, share of biofilm composition ([1]; 96 h): 59.6%; reduction of lactate production [2]: not observed; lactic acid production after 96 h of growth [2]: up-regulate; effect on in vitro oral plaque biofilm formation [3]: slightly effect
2 | O=C1OCC(Br)=C1Br [3,4-Di-bromo, 3,4-Dibromo-2(5H)-furanone] | absent or even inversed | 3.7% | 0.0% | 0.2% | 0.0% | 0.1% | 0.0% | 0.0% | 0.0% | 0.1% | 0.0% | 0.0% | 0.0% | 0.1% | 60.8% | 0.2% | 34.8% | 3.4% | 0.1% | 1.6% | Fusobacterium, share of biofilm composition ([1]; 96 h): 0.0%; Granulicatella, share of biofilm composition ([1]; 96 h): 0.2%; Haemophilus, share of biofilm composition ([1]; 96 h): 0.0%; Megasphaera, share of biofilm composition ([1]; 96 h): 0.0%; Neisseria, share of biofilm composition ([1]; 96 h): 0.0%; Other taxa, share of biofilm composition ([1]; 96 h): 0.7%; Porphyromonas, share of biofilm composition ([1]; 96 h): 0.0%; Prevotella, share of biofilm composition ([1]; 96 h): 2.3%; Rothia, share of biofilm composition ([1]; 96 h): 0.0%; Solobacterium, share of biofilm composition ([1]; 96 h): 0.7%; Streptococcus, share of biofilm composition ([1]; 96 h): 38.0%; Unclass. Pasteurellaceae, share of biofilm composition ([1]; 96 h): 0.0%; Veillonella, share of biofilm composition ([1]; 96 h): 52.9%; reduction of lactate production [2]: not observed; lactic acid production after 96 h of growth [2]: up-regulate; effect on in vitro oral plaque biofilm formation [3]: slightly effect
3 | CCCCCCCCCCCC(=O)N[C@H]1CCOC1=O [C12-HSL, N-[(3S)-tetrahydro-2-oxo-3-furanyl]-dodecanamide] | – | – | – | – | – | – | – | – | – | – | – | – | – | – | – | – | – | – | – | – | total lactic acid production per biofilm (FIG. 2) [2]: no effect
4 | CCCCCCCCCCCCCC(=O)N[C@H]1CCOC1=O [HSL-C14] | – | – | – | – | – | – | – | – | – | – | – | – | – | – | – | – | – | – | – | – | total lactic acid production per biofilm (FIG. 2) [2]: reduced lactic acid production; biofilm production (visible amount of biofilm) ([3]; Example 2, 100 μM, 48 h): toxic to the formation of biofilm
